Data on 20 molecules can be found in patent US20230159510A1, “NOVEL PRMT5 INHIBITORS” (AMGEN INC., priority 2020, published 2023).

One assay relates to HCT116 MTAP null cells. The experiment in a line: HCT116 proliferation assay, MTAP null cells (CellTiter-Glo, 6 days). The assay is classed as cell-based. The conditions noted are these: read-out: Protif_ HCT116-MTAP null IC50. Summed up: (§1)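 Luminescent viability signal was measured after continuous drug exposure. Before dosing, cells attached overnight (37° C, 5% CO2) in RPMI 1640 + 10% FBS. Dosing used 1:3 steps over 8 or 9 points, starting at 1 or 10 µM, with DMSO-only wells as control.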
For orientation: ATP-based viability assays read luminescence as a measure of living cells.

The next assay relates to HCT116 WT cells. Briefly: HCT116 proliferation assay, WT cells (CellTiter-Glo, 6 days). The assay is classed as cell-based. The conditions noted are these: read-out: Prolif_HCT116-WT IC50. Summed up:
as §1

Like-named read-outs stand apart in the source and are kept apart here.

By IC50 is commonly meant the concentration at which inhibition is half-maximal. `C[C@H](c1ncccn1)N(Cc1ccc(C#N)c(Cl)n1)C(=O)c1ccc2nc(N)c(I)cc2c1` [Example 769, (R)-2-amino-N-((6-chloro-5-cyanopyridin-2-yl)methyl)-3-iodo-N-(1-(pyrimidin-2-yl)ethyl)quinoline-6-carboxamide]: the IC50 with HCT116 MTAP null cells (HCT116-MTAP null, 144 h) was 52 nM; in the assay on HCT116 WT cells (Homo sapiens, HCT-116, 144 h), 5010 nM.

In the case of `COc1ccc(CN(C(=O)c2ccc3nc(N)c(C)cc3c2)[C@@H](c2ncccn2)C2CC2)nn1` (single isomer, unassigned) [Example 775], the half-inhibitory concentration (IC50) with HCT116 MTAP null cells (HCT116-MTAP null, 144 h) stood at 50 nM; in the assay with HCT116 WT cells (Homo sapiens, HCT-116, 144 h), 1680 nM.

Regarding `Cc1cc2cc(C(=O)N(Cc3ccc(C4CC4)nn3)[C@H](C)c3ncccn3)ccc2nc1N` [Example 761, (R)-2-amino-N-((6-cyclopropylpyridazin-3-yl)methyl)-3-methyl-N-(1-(pyrimidin-2-yl)ethyl)quinoline-6-carboxamide], the IC50 in the assay on HCT116 MTAP null cells (HCT116-MTAP null, 144 h) turned out to be 64 nM; with HCT116 WT cells (Homo sapiens, HCT-116, 144 h), 1350 nM.

Regarding `CNc1ccc(CN(C(=O)c2ccc3nc(N)c(C)cc3c2)[C@H](C)c2ncccc2F)nn1` [Example 824, 2-Amino-N-((1R)-1-(3-fluoro-2-pyridinyl)ethyl)-3-methyl-N-((6-(methylamino)-3-pyridazinyl)methyl)-6-quinolinecarboxamide], the IC50 is 607 nM with HCT116 MTAP null cells (HCT116-MTAP null, 144 h) and over 10000 nM in the assay with HCT116 WT cells (Homo sapiens, HCT-116, 144 h).

In the case of `Cc1cc2cc(C(=O)N(Cc3ccc4[nH]c(=O)[nH]c4c3)Cc3ccncc3F)ccc2nc1N` [Example 588, 2-amino-N-((3-fluoropyridin-4-yl)methyl)-3-methyl-N-((2-oxo-2,3-dihydro-1H-benzo [d]imidazol-5-yl)methyl)quinoline-6-carboxamide], the IC50 is 760 nM in the assay with HCT116 MTAP null cells (HCT116-MTAP null, 144 h) and over 1000 nM in the assay on HCT116 WT cells (Homo sapiens, HCT-116, 144 h).

In the case of “2-amino-N-((3R,4S)-3-fluorotetrahydro-2H-pyran-4-yl)-3-methyl-N-((5-(trifluoromethyl)-2-pyridinyl)methyl)-6-quinolinecarboxamide and 2-amino-N-((3S,4R)-3-fluorotetrahydro-2H-pyran-4-yl)-3-methyl-N-((5-(trifluoromethyl)-2-pyridinyl)methyl)-6-quinolinecarboxamide [Example 747]”, the IC50 in the assay on HCT116 MTAP null cells came to 385 nM; with HCT116 WT cells, 5260 nM.

On to `Cc1cc2cc(C(=O)N(Cc3ccc(N4CCCCC4)cc3)CC3(C#N)CC3)ccc2nc1N` [Example 574, 2-amino-N-((1-cyanocyclopropyl)methyl)-3-methyl-N-(4-(piperidin-1-yl)benzyl)quinoline-6-carboxamide], for which the IC50 in the assay on HCT116 MTAP null cells (HCT116-MTAP null, 144 h) was 490 nM; in the assay on HCT116 WT cells (Homo sapiens, HCT-116, 144 h), over 1000 nM.

In the case of `C[C@H](c1ncccc1F)N(Cc1ccc(Br)nn1)C(=O)c1ccc2nc(N)c(Cl)cc2c1` [Example 739, 2-amino-N-((6-bromo-3-pyridazinyl)methyl)-3-chloro-N-((1R)-1-(3-fluoro-2-pyridinyl)ethyl)-6-quinolinecarboxamide], the IC50 was 355 nM in the assay on HCT116 MTAP null cells (HCT116-MTAP null, 144 h) and over 10000 nM in the assay with HCT116 WT cells (Homo sapiens, HCT-116, 144 h).

For the molecule `CC[C@H](c1ncccn1)N(Cc1ccc(C#N)cn1)C(=O)c1ccc2nc(N)c(Br)cc2c1` [Example 759, (R)-2-amino-3-bromo-N-((5-cyanopyridin-2-yl)methyl)-N-(1-(pyrimidin-2-yl)propyl)quinoline-6-carboxamide], the IC50 is 293 nM with HCT116 MTAP null cells (HCT116-MTAP null, 144 h) and over 10000 nM in the assay on HCT116 WT cells (Homo sapiens, HCT-116, 144 h).

`Cc1cc2cc(C(=O)N(Cc3ccc(C(F)(F)F)cn3)C(C)C3CCOCC3)ccc2nc1N` (stereo not shown) [Example 675, 2-amino-3-methyl-N-(1-tetrahydropyran-4-ylethyl)-N-[[5-(trifluoromethyl)-2-pyridyl]methyl] quinoline-6-carboxamide]: the IC50 in the assay on HCT116 MTAP null cells (HCT116-MTAP null, 144 h) was 232 nM; in the assay on HCT116 WT cells (Homo sapiens, HCT-116, 144 h), over 1000 nM.

Consider `CO[C@@H]1COCC[C@H]1N(Cc1ccc(C(F)(F)F)cn1)C(=O)c1ccc2nc(N)c(C)cc2c1` (mixture of isomers) [Example 748, 2-amino-N-((3R,4S)-3-methoxytetrahydro-2H-pyran-4-yl)-3-methyl-N-((5-(trifluoromethyl)-2-pyridinyl)methyl)-6-quinolinecarboxamide and 2-amino-N-((3S,4R)-3-methoxytetrahydro-2H-pyran-4-yl)-3-methyl-N-((5-(trifluoromethyl)-2-pyridinyl)methyl)-6-quinolinecarboxamide], for which the values for the IC50 with HCT116 MTAP null cells and in the assay with HCT116 WT cells were 84 nM and 2620 nM, respectively.

For `COC[C@@H](C)N(Cc1ccc(C(F)(F)F)cn1)C(=O)c1ccc2nc(N)c(C)cc2c1C` [Example 771, 2-amino-N-((2R)-1-methoxy-2-propanyl)-3,5-dimethyl-N-((5-(trifluoromethyl)-2-pyridinyl)methyl)-6-quinolinecarboxamide], the IC50 is 270 nM in the assay on HCT116 MTAP null cells (HCT116-MTAP null, 144 h) and over 10000 nM in the assay with HCT116 WT cells (Homo sapiens, HCT-116, 144 h).

Take `Cc1cc2cc(C(=O)N(Cc3ccc(C(F)(F)F)cn3)[C@H](C)c3cccc(F)n3)ccc2nc1N` [Example 799, (R)-2-amino-N-(1-(6-fluoropyridin-2-yl)ethyl)-3-methyl-N-((5-(trifluoromethyl)pyridin-2-yl)methyl)quinoline-6-carboxamide]: the IC50 in the assay on HCT116 MTAP null cells (HCT116-MTAP null, 144 h) came to 13 nM; with HCT116 WT cells (Homo sapiens, HCT-116, 144 h) it was 301 nM.

Regarding `CCc1csc(CN(Cc2ccc(C(F)(F)F)cn2)C(=O)c2ccc3nc(N)c(C)cc3c2)n1` [Example 586, 2-amino-N-((4-ethylthiazol-2-yl)methyl)-3-methyl-N-((5-(trifluoromethyl)pyridin-2-yl)methyl)quinoline-6-carboxamide], the IC50 worked out at 344 nM in the assay with HCT116 MTAP null cells (HCT116-MTAP null, 144 h) and 5550 nM in the assay on HCT116 WT cells (Homo sapiens, HCT-116, 144 h).

Take `Cc1cc2cc(C(=O)N(Cc3ccc(C(F)(F)F)cn3)Cc3ncccn3)c(F)cc2nc1N` [Example 319, 2-amino-7-fluoro-3-methyl-N-(2-pyrimidinylmethyl)-N-((5-(trifluoromethyl)-2-pyridinyl)methyl)-6-quinolinecarboxamide]: the IC50 with HCT116 MTAP null cells (HCT116-MTAP null, 144 h) amounted to 168 nM; in the assay on HCT116 WT cells (Homo sapiens, HCT-116, 144 h) it was 4230 nM.

With `C[C@H](c1ncccn1)N(Cc1ccc(C(F)(F)F)nn1)C(=O)c1cnc2nc(N)c(I)cc2c1` [Example 808, (R)-7-amino-6-iodo-N-(1-(pyrimidin-2-yl)ethyl)-N-((6-(trifluoromethyl)pyridazin-3-yl)methyl)-1,8-naphthyridine-3-carboxamide], the concentration for half-maximal inhibition (IC50) with HCT116 MTAP null cells (HCT116-MTAP null, 144 h) was 454 nM; in the assay with HCT116 WT cells (Homo sapiens, HCT-116, 144 h) it was 19900 nM.

In the case of `Cc1cc2cc(C(=O)N(Cc3ccc(C#N)nn3)[C@H](C)c3ncccc3F)ccc2nc1N` [Example 728, 2-amino-N-((6-cyano-3-pyridazinyl)methyl)-N-((1R)-1-(3-fluoro-2-pyridinyl)ethyl)-3-methyl-6-quinolinecarboxamide], the IC50 amounted to 264 nM with HCT116 MTAP null cells (HCT116-MTAP null, 144 h) and 6810 nM in the assay with HCT116 WT cells (Homo sapiens, HCT-116, 144 h).

Turning to `Cc1cc2cc(C(=O)N(Cc3ccc(C(F)(F)F)cn3)CC(C)C)ccc2nc1N` [Example 300, 2-amino-N-isobutyl-3-methyl-N-((5-(trifluoromethyl)pyridin-2-yl)methyl)quinoline-6-carboxamide], the concentration for half-maximal inhibition (IC50) was 317 nM in the assay on HCT116 MTAP null cells (144 h) and 5300 nM in the assay with HCT116 WT cells (Homo sapiens, HCT-116, 144 h).

With `Cc1nc(CN(C(=O)c2ccc3nc(N)c(Br)cc3c2)[C@H](C)c2ncccn2)ccc1C#N` [Example 796, (R)-2-amino-3-bromo-N-((5-cyano-6-methylpyridin-2-yl)methyl)-N-(1-(pyrimidin-2-yl)ethyl)quinoline-6-carboxamide], the IC50 in the assay with HCT116 MTAP null cells (HCT116-MTAP null, 144 h) is 308 nM; in the assay on HCT116 WT cells (Homo sapiens, HCT-116, 144 h), over 10000 nM.

With `CO[C@@H]1CCOC[C@H]1N(Cc1ccc(C(F)(F)F)cn1)C(=O)c1ccc2nc(N)c(C)cc2c1` (single isomer, unassigned) [Example 782], the IC50 in the assay on HCT116 MTAP null cells (HCT116-MTAP null, 144 h) is 17 nM; with HCT116 WT cells (Homo sapiens, HCT-116, 144 h), 460 nM.
